# ChEMBL document CHEMBL1151909, “Mechanism of action of N-phenyl-N'-(2-chloroethyl)ureas in the colchicine-binding site at the interface between alpha- and beta-tubulin” (2009)
# Tested on: HT-29
# Test: Antiproliferative activity against human HT-29 cells after 48 hrs by SRB assay
# Format: functional
# Conditions: HT-29, 48 h
row,GI50 [nM],SMILES
1,9600,COc1ccc(CCc2cccc(NC(=O)NCCCl)c2)cc1O
2,160,O=C(NCCCl)Nc1cccc(CCCCCO)c1
3,840,COCCCCCc1cccc(NC(=O)NCCCl)c1
4,2400,COc1ccc(/C=C\c2ccc(NC(=O)NCCCl)cc2)cc1O
5,300,O=C(NCCCl)Nc1cccc(CCCCCCO)c1
6,600,CC(=O)CCCCc1cccc(NC(=O)NCCCl)c1
7,710,O=C(NCCCl)Nc1cccc(CCCCO)c1
8,620,CCCCCc1cccc(NC(=O)NCCCl)c1
